Values quoted from earlier work as cited in publication PMC3131558, “Plitidepsin Has a Safe Cardiac Profile: A Comprehensive Analysis” (Marine Drugs, 2011).

Conditions: possible class effect of HDACI inhibitors; cited from earlier work
From the text: Plitidepsin has neither shown cardiac toxicity during preclinical/toxicology studies nor has been reported in early phase I clinical trials.

Structure (SMILES): O=C(/C=C/c1ccc(CN(CCO)CCc2c[nH]c3ccccc23)cc1)NO [LAQ824]
- Electrocardiogram (ECG) abnormalities: reported

Structure (SMILES): Cc1[nH]c2ccccc2c1CCNCc1ccc(/C=C/C(=O)NO)cc1 [LBH589]
- Electrocardiogram (ECG) abnormalities: reported
